How the values were obtained:
[1] = target: T1, class II fructose 1,6-bisphosphate aldolase (MtFBA) (Mycobacterium tuberculosis, UniProt P9WQA3); assay: biochemical
[2] = target: T1, class II fructose 1,6-bisphosphate aldolase (MtFBA); assay: biochemical; assay type: binding

T1 sequence (P9WQA3 whole entry): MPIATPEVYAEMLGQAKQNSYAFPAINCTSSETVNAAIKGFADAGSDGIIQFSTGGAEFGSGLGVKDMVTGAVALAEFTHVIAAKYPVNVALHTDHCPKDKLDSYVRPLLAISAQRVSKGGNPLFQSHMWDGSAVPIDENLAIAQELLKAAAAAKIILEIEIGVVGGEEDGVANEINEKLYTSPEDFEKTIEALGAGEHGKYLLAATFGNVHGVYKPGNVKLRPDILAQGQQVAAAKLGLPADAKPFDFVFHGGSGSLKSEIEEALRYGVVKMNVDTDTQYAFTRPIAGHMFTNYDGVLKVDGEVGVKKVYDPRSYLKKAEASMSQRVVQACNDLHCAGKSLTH

SMILES	Ki [1] [µM]	Kd [2] [µM]
O=C(CO)COP(=O)(O)O [DHAP, dihydroxyacetone phosphate]	238 ± 20	–
O=C(COP(=O)(O)O)NO [PGH, phosphoglycolohydroxamate]	–	0.0211 ± 0.0002

Source: article PMC4170518 (Biochemistry, 2013)
